In patent US4594329A, “CRF analogs” (The Salk Institute for Biological Studies, priority 1984, dated 1986):
Square brackets hold non-standard residues; d marks the D form. Peptide text beside a SMILES is read from it. hArg = N=C(N)NCCCC[C@H](N)C(=O)O; Nle = CCCC[C@H](N)C(=O)O; Orn = NCCC[C@H](N)C(=O)O

How the values were obtained:
[1] = system: cultured rat pituitary cells; assay: secretion of ACTH and β-endorphin by cultured rat pituitary cells; format: cell-based
Experimental: (§1) The synthetic peptide AHC and oCRF were examined for their effects on the secretion of ACTH and β-endorphin in vitro and was also in vivo. The potency of synthetic oCRF to stimulate the secretion of ACTH and β-endorphin by cultured rat pituitary cells was measured using the procedure as generally set forth in Endocrinology, 91, 562 (1972). […] In vivo testing is carried out using the general procedure set forth in C. Rivier et al., Science, 218, 377 (1982).

[2] = lowering of blood pressure, in vivo testing; settings: general procedure of Example III
Experimental: as §1

[3] = general procedure of Example III

Compound: CC[C@H](C)[C@H](NC(=O)[C@@H]1CCCN1C(=O)[C@@H]1CCCN1)C(=O)N[C@@H](CO)C(=O)N[C@@H](CC(C)C)C(=O)N[C@@H](CC(=O)O)C(=O)N[C@@H](CC(C)C)C(=O)N[C@H](C(=O)N[C@@H](CC(C)C)C(=O)N[C@@H](Cc1c[nH]cn1)C(=O)N[C@@H](CC(C)C)C(=O)N[C@@H](CC(C)C)C(=O)N[C@@H](CCCNC(=N)N)C(=O)N[C@@H](CCC(=O)O)C(=O)N[C@@H](CCSC)C(=O)N[C@@H](CC(C)C)C(=O)N[C@@H](CCC(=O)O)C(=O)N[C@@H](CCSC)C(=O)N[C@@H](CCC(=O)O)C(=O)N[C@@H](CCCN)C(=O)N[C@@H](C)C(=O)N[C@@H](CCC(=O)O)C(=O)N[C@@H](CCC(N)=O)C(=O)N[C@@H](CCC(=O)O)C(=O)N[C@@H](C)C(=O)N[C@@H](CCC(=O)O)C(=O)N[C@@H](CCC(N)=O)C(=O)N[C@@H](C)C(=O)N[C@@H](C)C(=O)N[C@@H](CC(C)C)C(=O)N[C@@H](CC(N)=O)C(=O)N[C@@H](CCCNC(=N)N)C(=O)N[C@@H](CCCCNC(=N)N)C(=O)N[C@@H](CC(C)C)C(=O)N[C@@H](CC(C)C)C(=O)N[C@@H](CCC(=O)O)C(=O)N[C@@H](CCC(=O)O)C(=O)N[C@@H](C)C(N)=O)[C@@H](C)O (H-PPISLDLTLHLLREMLEME[Orn]AEQEAEQAALNR[hArg]LLEEA-NH2)
- stimulates the secretion of ACTH and β-END-LI [1, 3]: stimulates the secretion of ACTH and β-END-LI
- lowering of blood pressure [2]: very significant lowering of bloood pressure

Compound: H-SQE[dP]PISLDLTFHLLRE[Nle]LE[Nle]AKAEQEAEQAALNRLLLEEA-NH2 [[D-Pro^4, Nle^18,21]-AHC]
- stimulates the secretion of ACTH and β-END-LI [1, 3]: stimulates the secretion of ACTH and β-END-LI
- lowering of blood pressure [2]: very significant lowering of blood pressure

Compound: H-SQ[dY][dP]PISLDLTFHLLRE[Nle]LE[Nle]AKAEQEAEQAALNRLLLEEA-NH2 [[D-Tyr^3, D-Pro^4, Nle^18, 21]-AHC]
- stimulates the secretion of ACTH and β-END-LI [1, 3]: stimulates the secretion of ACTH and β-END-LI
- lowering of blood pressure [2]: very significant lowering of blood pressure

Compound: CCCC[C@H](NC(=O)[C@H](CCC(=O)O)NC(=O)[C@H](CC(C)C)NC(=O)[C@@H](NC(=O)[C@H](CCC(=O)O)NC(=O)[C@H](CCCNC(=N)N)NC(=O)[C@H](CC(C)C)NC(=O)[C@H](CC(C)C)NC(=O)[C@H](Cc1c[nH]cn1)NC(=O)[C@H](Cc1ccccc1)NC(=O)[C@@H](NC(=O)[C@H](CC(C)C)NC(=O)[C@H](CC(=O)O)NC(=O)[C@H](CC(C)C)NC(=O)[C@H](CO)NC(=O)[C@@H](NC(=O)[C@@H]1CCCN1C(=O)[C@H]1CCCN1)[C@@H](C)CC)[C@@H](C)O)C(C)C)C(=O)N[C@@H](C)C(=O)N[C@@H](CCCNC(=N)N)C(=O)N[C@@H](C)C(=O)N[C@@H](CCC(=O)O)C(=O)N[C@@H](CCC(N)=O)C(=O)N[C@@H](CC(C)C)C(=O)N[C@@H](C)C(=O)N[C@@H](CCC(N)=O)C(=O)N[C@@H](CCC(N)=O)C(=O)N[C@@H](C)C(=O)N[C@@H](Cc1c[nH]cn1)C(=O)N[C@@H](CO)C(=O)N[C@@H](CC(N)=O)C(=O)N[C@@H](CCCNC(=N)N)C(=O)N[C@@H](CCCCN)C(=O)N[C@@H](CC(C)C)C(=O)N[C@@H](CCSC)C(=O)N[C@@H](CCC(=O)O)C(=O)N[C@H](C(=O)N[C@H](C(N)=O)[C@@H](C)CC)[C@@H](C)CC [[D-Pro^4,Nle^21,38]-rCRF(4-41)] (H-[dP]PISLDLTFHLLREVLE[Nle]ARAEQLAQQAHSNRKLMEII-NH2)
- secretion of ACTH and β-END-LI compared with oCRF ([1]; comparison with oCRF): in an amount greater than oCRF
- lowering of blood pressure [2]: very significant lowering of blood pressure

Compound: H-PPISLDLTFHLLREVLEMARAEQLAQQAHLNRKLMEQI-NH2
- stimulates the secretion of ACTH and β-END-LI [1, 3]: stimulates the secretion of ACTH and β-END-LI
- lowering of blood pressure [2]: very significant lowering of blood pressure

Compound: H-SQEPPISLELTFHLLRE[Nle]LE[Nle]AKAEQEAEQAALNRLLLEEA-NH2 [[Glu^9, Nle^18, 21]-AHC]
- stimulates the secretion of ACTH and β-END-LI [1, 3]: stimulates the secretion of ACTH and β-END-LI
- lowering of blood pressure [2]: very significant lowering of blood pressure

Compound: CCCC[C@H](NC(=O)[C@H](CCC(=O)O)NC(=O)[C@H](CC(C)C)NC(=O)[C@H](CCCC)NC(=O)[C@H](CCC(=O)O)NC(=O)[C@H](CCCNC(=N)N)NC(=O)[C@H](CC(C)C)NC(=O)[C@H](CC(C)C)NC(=O)[C@H](Cc1c[nH]cn1)NC(=O)[C@H](Cc1ccccc1)NC(=O)[C@@H](NC(=O)[C@H](CC(C)C)NC(=O)[C@H](CC(=O)O)NC(=O)[C@H](CC(C)C)NC(=O)[C@H](CO)NC(=O)[C@@H](NC(=O)[C@@H]1CCCN1C(=O)[C@H]1CCCN1)[C@@H](C)CC)[C@@H](C)O)C(=O)N[C@@H](C)C(=O)N[C@@H](CCCCN)C(=O)N[C@@H](C)C(=O)N[C@@H](CCC(=O)O)C(=O)N[C@@H](CCC(N)=O)C(=O)N[C@@H](CCC(=O)O)C(=O)N[C@@H](C)C(=O)N[C@@H](CCC(=O)O)C(=O)N[C@@H](CCC(N)=O)C(=O)N[C@@H](C)C(=O)N[C@@H](C)C(=O)N[C@@H](CC(C)C)C(=O)N[C@@H](CC(N)=O)C(=O)N[C@@H](CCCNC(=N)N)C(=O)N[C@@H](CC(C)C)C(=O)N[C@@H](CC(C)C)C(=O)N[C@@H](CC(C)C)C(=O)N[C@@H](CCC(=O)O)C(=O)N[C@@H](CCC(=O)O)C(=O)N[C@@H](C)C(N)=O [[D-Pro^4, Nle^18,21]-AHC(4-41)] (H-[dP]PISLDLTFHLLRE[Nle]LE[Nle]AKAEQEAEQAALNRLLLEEA-NH2)
- secretion of ACTH and β-END-LI, amount relative to oCRF ([1]; % of oCRF, general procedure of Example III): about 160%
- lowering of blood pressure [2]: very significant lowering of blood pressure

Compound: H-SQEPPISLDLTFHLLREVLE[Nle]TKADQLAEQAHSNRKLLDIA-NH2 [[Nle^21,Glu^29]-oCRF]
- stimulates the secretion of ACTH and β-END-LI [1, 3]: stimulates the secretion of ACTH and β-END-LI
- lowering of blood pressure [2]: very significant lowering of blood pressure

Compound: CC[C@H](C)[C@H](NC(=O)[C@@H](NC(=O)[C@H](CC(=O)O)NC(=O)[C@H](CC(C)C)NC(=O)[C@H](CC(C)C)NC(=O)[C@H](CC(C)C)NC(=O)[C@H](CCCNC(=N)N)NC(=O)[C@H](CC(N)=O)NC(=O)[C@H](CC(N)=O)NC(=O)[C@H](C)NC(=O)[C@H](C)NC(=O)[C@H](CCC(N)=O)NC(=O)[C@H](CCC(=O)O)NC(=O)[C@H](CCCCN)NC(=O)[C@H](CCC(=O)O)NC(=O)[C@H](CCCCN)NC(=O)[C@H](CCC(=O)O)NC(=O)[C@H](CCC(N)=O)NC(=O)[C@H](CCCCN)NC(=O)[C@H](CCCNC(=N)N)NC(=O)[C@H](C)NC(=O)[C@H](CCC(=O)O)NC(=O)[C@@H](NC(=O)[C@H](CCSC)NC(=O)[C@H](CCCCN)NC(=O)[C@H](CCCNC(=N)N)NC(=O)[C@H](CC(C)C)NC(=O)[C@H](CC(C)C)NC(=O)[C@H](CCC(=O)O)NC(=O)[C@H](CC(C)C)NC(=O)[C@H](CO)NC(=O)[C@H](CC(C)C)NC(=O)[C@H](CC(=O)O)NC(=O)[C@@H](NC(=O)[C@H](CO)NC(=O)[C@@H](NC(=O)[C@@H]1CCCN1C(=O)[C@@H]1CCCN1C(=O)CNC(=O)[C@@H]1CCC(=O)N1)[C@@H](C)CC)[C@@H](C)CC)[C@@H](C)CC)[C@@H](C)CC)C(N)=O
- stimulates the secretion of ACTH and β-END-LI [1, 3]: stimulates the secretion of ACTH and β-END-LI
- lowering of blood pressure [2]: very significant lowering of blood pressure

Compound: H-SEEPPIS[Nle]DLSFHLLREVLEMARAEQLAQQAHLNRKLMEEI-NH2 [[Nle^8, Ser^11, Leu^33, Glu^40]-rCRF]
- stimulates the secretion of ACTH and β-END-LI [1, 3]: stimulates the secretion of ACTH and β-END-LI
- lowering of blood pressure [2]: very significant lowering of blood pressure

Compound: CCCC[C@H](NC(=O)[C@H](CCC(=O)O)NC(=O)[C@H](CC(C)C)NC(=O)[C@H](CCCC)NC(=O)[C@H](CCC(=O)O)NC(=O)[C@H](CCCNC(=N)N)NC(=O)[C@H](CC(C)C)NC(=O)[C@H](CC(C)C)NC(=O)[C@H](Cc1c[nH]cn1)NC(=O)[C@H](Cc1ccccc1)NC(=O)[C@@H](NC(=O)[C@H](CC(C)C)NC(=O)[C@H](CC(=O)O)NC(=O)[C@H](CC(C)C)NC(=O)[C@H](CO)NC(=O)[C@@H](NC(=O)[C@@H]1CCCN1)[C@@H](C)CC)[C@@H](C)O)C(=O)N[C@@H](C)C(=O)N[C@@H](CCCNC(=N)N)C(=O)N[C@@H](C)C(=O)N[C@@H](CCC(=O)O)C(=O)N[C@@H](CCC(N)=O)C(=O)N[C@@H](CCC(=O)O)C(=O)N[C@@H](C)C(=O)N[C@@H](CCC(=O)O)C(=O)N[C@@H](CCC(N)=O)C(=O)N[C@@H](C)C(=O)N[C@@H](C)C(=O)N[C@@H](CC(C)C)C(=O)N[C@@H](CC(N)=O)C(=O)N[C@@H](CCCNC(=N)N)C(=O)N[C@@H](CC(C)C)C(=O)N[C@@H](CC(C)C)C(=O)N[C@@H](CC(C)C)C(=O)N[C@@H](CCC(=O)O)C(=O)N[C@@H](CCC(=O)O)C(=O)N[C@@H](C)C(N)=O [[Nle^18,21,Arg^23]-AHC(5-41)] (H-PISLDLTFHLLRE[Nle]LE[Nle]ARAEQEAEQAALNRLLLEEA-NH2)
- stimulates the secretion of ACTH and β-END-LI [1, 3]: stimulates the secretion of ACTH and β-END-LI
- lowering of blood pressure [2]: very significant lowering of blood pressure

Compound: CCCC[C@H](NC(=O)[C@H](CCC(=O)O)NC(=O)[C@H](CC(C)C)NC(=O)[C@H](CCCC)NC(=O)[C@H](CCC(=O)O)NC(=O)[C@H](CCCNC(=N)N)NC(=O)[C@H](CC(C)C)NC(=O)[C@H](CC(C)C)NC(=O)[C@H](Cc1c[nH]cn1)NC(=O)[C@H](Cc1ccccc1)NC(=O)[C@@H](NC(=O)[C@H](CC(C)C)NC(=O)[C@H](CC(=O)O)NC(=O)[C@H](CC(C)C)NC(=O)[C@H](CO)NC(=O)[C@@H](N)[C@@H](C)CC)[C@@H](C)O)C(=O)N[C@@H](C)C(=O)N[C@@H](CCCCN)C(=O)N[C@@H](C)C(=O)N[C@@H](CCC(=O)O)C(=O)N[C@@H](CCC(N)=O)C(=O)N[C@@H](CCC(=O)O)C(=O)N[C@@H](C)C(=O)N[C@@H](CCC(=O)O)C(=O)N[C@@H](CCC(N)=O)C(=O)N[C@@H](C)C(=O)N[C@@H](C)C(=O)N[C@@H](CC(C)C)C(=O)N[C@@H](CC(N)=O)C(=O)N[C@@H](CCCNC(=N)N)C(=O)N[C@@H](CCCNC(=N)N)C(=O)N[C@@H](CC(C)C)C(=O)N[C@@H](CC(C)C)C(=O)N[C@@H](CCC(=O)O)C(=O)N[C@@H](CCC(=O)O)C(=O)N[C@@H](C)C(N)=O [[Nle^18,21,Arg^36]-AHC(6-41)] (H-ISLDLTFHLLRE[Nle]LE[Nle]AKAEQEAEQAALNRRLLEEA-NH2)
- stimulates the secretion of ACTH and β-END-LI [1, 3]: stimulates the secretion of ACTH and β-END-Li
- lowering of blood pressure [2]: very significant lowering of blood pressure
